Target: TRPV4 (Homo sapiens, UniProt Q9HBA0)
Assay: fura […] Ca2+ imaging dose response in human primary monocyte-derived macrophages (endogenous TRPV4); response reduced by TRPV4 siRNA knockdown; EC50 […] (GM-CSF) and […] (M-CSF)
Format: cell-based

TRPV4, sequence (Q9HBA0 whole entry): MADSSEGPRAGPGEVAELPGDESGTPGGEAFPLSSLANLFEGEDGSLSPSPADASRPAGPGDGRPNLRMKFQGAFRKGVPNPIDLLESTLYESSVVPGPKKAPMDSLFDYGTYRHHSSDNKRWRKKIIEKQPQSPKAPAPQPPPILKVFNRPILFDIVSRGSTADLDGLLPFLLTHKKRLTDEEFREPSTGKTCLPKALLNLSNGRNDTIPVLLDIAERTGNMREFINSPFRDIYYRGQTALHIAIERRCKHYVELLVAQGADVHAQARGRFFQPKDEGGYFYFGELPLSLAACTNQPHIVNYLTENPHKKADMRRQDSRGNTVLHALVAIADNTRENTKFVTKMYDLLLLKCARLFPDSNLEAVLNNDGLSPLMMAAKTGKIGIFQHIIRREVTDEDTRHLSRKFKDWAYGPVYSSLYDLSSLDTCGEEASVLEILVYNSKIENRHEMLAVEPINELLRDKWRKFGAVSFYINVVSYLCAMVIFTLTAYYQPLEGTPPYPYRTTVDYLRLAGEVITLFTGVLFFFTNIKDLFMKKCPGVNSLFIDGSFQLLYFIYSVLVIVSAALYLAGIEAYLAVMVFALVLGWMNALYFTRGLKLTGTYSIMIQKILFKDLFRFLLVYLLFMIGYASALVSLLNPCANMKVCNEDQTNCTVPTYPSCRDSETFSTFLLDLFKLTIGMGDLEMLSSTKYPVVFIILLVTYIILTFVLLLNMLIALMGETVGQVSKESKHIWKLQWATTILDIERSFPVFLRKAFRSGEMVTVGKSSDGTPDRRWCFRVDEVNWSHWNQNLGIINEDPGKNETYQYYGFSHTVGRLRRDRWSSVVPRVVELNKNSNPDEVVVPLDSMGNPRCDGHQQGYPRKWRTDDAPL

CC(C)C[C@H](NC(=O)c1cc2ccccc2s1)C(=O)N1CCN(C(=O)[C@H](CO)NS(=O)(=O)c2ccc(Cl)cc2Cl)CC1 [GSK1016790A]
EC50: 580 nM

From paper PMC10563396, “Anti-Inflammatory Role of TRPV4 in Human Macrophages” (ImmunoHorizons, 2023)
